The results in this text go back to patent US8530522B2, “Organic compounds” (Novartis AG, priority 2008, dated 2013).

Data set [1] in a line: Water sorption/desorption isotherms (Dynamic Vapor System DVS-1). The data set is classed as physicochemical. As to the method: Sorption/desorption isotherms were measured using the Dynamic Vapor System (DVS-1). Measurement was carried out at 25° C. and 40° C.
Data set [2] is described as follows: Storage of Form I samples at elevated temperature and 75% r.h. In kind it is physicochemical.

Counter-ions that a name gives are not always drawn.

In the case of `CCCCCCCCc1ccc(CCC(N)(CO)CO)cc1` [FTY720 HCl, 2-amino-2-[2-(4-octylphenyl)ethyl]propane-1,3-diol hydrochloride salt], the “relative humidity of first water uptake, water sorption isotherm” value in data set [1] (isotherm recorded at 25° C.) is 90 % r.h. For the same compound, the “relative humidity of first significant water uptake, water sorption isotherm” value in data set [1] (isotherm recorded at 40° C.) was 80 % r.h.
For the compound `CCCCCCCCc1ccc(CCC(N)(CO)CO)cc1` [Form I], the “solid form after storage” value in data set [2] (stored 1 month at 60° C. and 75% r.h.) was “conversion to the hydrate form”; in data set [2] (stored 1 month at 80° C. and 75% r.h.) it was “conversion to the hydrate form”.
